The values below come from patent US20070219220A1, “Pyrazolopyrimidinethione Derivatives, Salts and Solvates Thereof, Preparation Methods and Use Thereof” (priority 2003, published 2007).

Each structure is given as a SMILES string. Where two headings read alike, the source gives them in different places. Marks after values point to notes of the source that are not given here.

For series [1] the following is noted: cited from earlier work.
Series [2] has as its system rats with testis removed. Briefly: Penile erection caused by stimulating electric current in rats with testes removed (Example 7). It is filed as in vivo, wistar rats. The following applies: for penile swelling time (in words) / latent period of the penile erection (in words): compared with control; for latent period of the penile erection (in words): P<0.001; for Latent period / Swelling time: stimulation 35 min after administration. The source says:
Methods: Forty healthy adult male wistar rats were used in the study, with the body weight ranging from 230 g to 250 g. The rats were anesthetized with sodium pentobarbital, and their testes were squeezed into the scrotum. After sterilization, the scrotum was dissected with an operation knife. The testes and epididymis were taken out respectively and then ligated. The wound were sutured and 100,000 unit of penicillin was administrated to each rat for three consecutive days. After breeding for one week, the rats were used for the tests. The animals may be used repeatedly and the interval between any two of the tests was one week. […] Sildenafil at the dose of 50 mg/kg was used as the positive control. The control group is (1% sodium carboxymethyl cellulose). In 35 min after the administration, the penis of the rats was stimulated with SEN-3201 stimulator (NIHON KOHDEN, Japan), with the following parameters: the stimulating voltage of 10V, the time interval (T1) of 250 msec, the deferment time (T2) of 10 msec, the duration (T3) of 500 μsec, and the stimulation rank (n) of 25. At the same time, the latent period (sec) of the penile erection and the penile swelling time (min) were recorded with a three-channel stop-watch.

The next series deals with mice with testis removed. Briefly: Sexual function (back climbing) of testis-removed mice (Example 10). It is filed as in vivo, KM mice. The following applies: for Incidence: back climbing within 2 hours after administration; for Times of back climbing / Number of the animals who performed back climbing: within 2 hours after administration; for Number of the animals who performed back climbing: 10 male mice. The source says: Methods: Forty healthy KM male mice with the body weight ranging from 28-32 g and forty healthy KM female mice with body weight ranging from 24-28 g were used. Each male mouse was anesthetized with sodium pentobarbital, and the testes were squeezed into the scrotum. After sterilization, the scrotum was dissected with an operating knife. The testes and epididymis were respectively taken out, and then ligated. The wound were sutured and each of the mice was administrated with 100,000 units of penicillin for three consecutive days. After being bred for one week, the mice were used for the tests. The animals may be employed repeatedly and the interval between any two tests was 72 hours. To the mice, the following compounds were orally administered: compound (1), compound (2), compound (3), and compound (4), each at the dose of 80 mg/kg and 40 mg/kg, respectively. The positive control agent was Sildenafil, at the dose of 80 mg/kg. The control group was given with 1% of sodium carboxymethyl cellulose. At 30 min after the administration, the male mice who had taken the above agents were put into the cages of female mice, with the male-to-female rate of 1:1. There were three males and three females in each cage. The times of back climbing on the female mice performed by the male mice, and the percentage of occurrence were observed within 2 hours after the administration.

The nature of series [3]: Preliminary acute toxicity, Bliss method (Example 13). The note with it: rat, in vivo, oral and intragastric administration, rats. The method, then:
Experimental methods: the toxicity test was conducted by oral and intragastric administration of the pyrazolopyrimidinethione derivatives of the invention using the Bliss method.

For a further series, the system named is anesthetized dogs. Briefly: Blood pressure, heart rate and respiration of anesthetized dogs (Example 11). It is filed as in vivo. The note with it: for arterial blood pressure (systolic and diastolic), heart rate and respiration (frequency and depth), in words: oral 40 mg/kg, in 3 hours after administration. The protocol: Methods: eight healthy male dogs with the body weight ranging from 12-15 kg were used. The dogs were anesthetized with 30 mg/kg of sodium pentobarbital. The femoral artery was dissected and inserted with a blood pressure transducer to record the blood pressure. The limbs were pierced with electrodes for recording the electrocardiogram. The respiration belt was wrapped around their chest and the respiration rate was recorded. The apparatus used was RM-6000 Polygraph system (NIHON KOHDEN, Japan). The changes in the arterial blood pressure, the heart rate, and the respiration were observed after the test compound was introduced into the stomach of the anesthetized dogs via 14# catheter.

In the next series the test system is healthy mice. The following applies: oral 50 mg/kg; within two hours; cited from earlier work.
Series [4] relates to rats with testis removed. Briefly: Duration of penile erection in rats with testis removed (Example 8). The following applies: oral 50 mg/kg. It is filed as in vivo, wistar rats.
The subject of another series is anesthetized rats. Description: Blood pressure and heart rate of anesthetized rats (Example 12). It is filed as in vivo, wistar rats. The method, then: Forty male wistar rats with the body weight ranging from 220-240 g were used in the study. Pharmaceuticals: compound (2) and Sildenafil, which were ground and then suspended with 1% of sodium carboxymethyl cellulose. Apparatus: RM-6000 eight-graph system (NIHON KOHDEN, Japan). The doses for administration and the division of the groups: solvent control group (abbreviated as the control group), 20 mg/kg of compound (2), 40 mg/kg of compound (2), 80 mg/kg of compound (2), and 50 mg/kg of Sildenafil. The administration route is through dodecadactylon. Methods: the male wistar rats were taken out and anesthetized with 35 mg/kg of sodium pentobarbital by injecting into the abdominal cavity, on the basis of their body weight. The rats were fixed on the operation table and were performed with the dissection operation of right carotid artery. The catheter with an external diameter of 1 mm was inserted into the right carotid artery. The blood pressure was measured and the electrodes positioned on the skin of the four limbs were used to record the electrocardiogram limb lead II. The catheter with an external diameter of 2 mm was inserted into the dodecadactylon via incision of the epigastric region, for the administration of the pharmaceuticals. RM-6000 eight-graph system (NIHON KOHDEN, Japan) was employed to record. Observation time: the value before administration, the values at 15, 30, 60, 120 and 180 min after the administration.

Where [5] appears, read: prior-art filings, background section.
Where [6] appears, read: 50 mg/kg through dodecadactylon, at 15 min after administration.
[7] abbreviates: 50 mg/kg through dodecadactylon, at 30 min after administration.
The mark [8] stands for this setting: 50 mg/kg through dodecadactylon, at 60 min after administration.
[9] abbreviates: 50 mg/kg through dodecadactylon, at 120 min after administration.
The mark [10] stands for this setting: 50 mg/kg through dodecadactylon, value before administration.

Take `CCCc1nn(C)c2c(=O)[nH]c(-c3cc(S(=O)(=O)N4C[C@@H](C)N[C@@H](C)C4)ccc3OCC)nc12` [5-[2-ethoxy-5-(cis-3,5-dimethylpiperazin-1-sulfonyl)phenyl]-1-methyl-3-n-propyl-1,6-dihydro-7H-pyrazolo[4,3d]pyrimidin-7-one]: in series [1] (setting [5]), the LD50 (commonly the dose at which mortality reaches 50%) is 772.5 to 1052.1 mg/kg.
For `CCCc1nn(CC)c2c(=S)[nH]c(-c3cc(S(=O)(=O)N4C[C@@H](C)N[C@@H](C)C4)ccc3OCC)nc12` [Compound (1), 5-[2-ethoxy-5-(cis-3,5-dimethylpiperazin-1-sulfonyl)phenyl]-1-ethyl-3-n-propyl-1,6-dihydro-7H-pyrazolo[4,3-d]pyrimidin-7-thione], in the series with rats with testis removed [2], the “penile swelling time (in words)” value is listed as “lengthened” and the “latent period of the penile erection (in words)” value (shortened to “latent period … (in words)”) is on record as “evidently shortened”. Besides, the “penile swelling time compared with positive control sildenafil (in words)” value in the series on rats with testis removed [2] (compared with sildenafil 50 mg/kg) was “more evident”. In the series on rats with testis removed [2] (oral 20 mg/kg), this molecule showed a Latent period of 28.8 ± 1.7 s and a Swelling time of 1305.1 ± 588.8 s. In the series with rats with testis removed [2] (oral 40 mg/kg), this molecule yielded a Latent period of 29.5 ± 4.2 s and a Swelling time of 2943.1 ± 552.9 s. In the series with mice with testis removed (oral 40 mg/kg), the Incidence came out at 30%, the “Times of back climbing” value turned out to be 4 and the “Number of the animals who performed back climbing” value (from here on “Number”) stood at 3. In addition, in the series on mice with testis removed (oral 80 mg/kg), the Incidence is listed as 40%, the “Times of back climbing” value is 7* and the “Number” value is listed as 4. Besides, the LD50 in series [3] was > 3000 mg/kg. Further, the “arterial blood pressure (systolic and diastolic), heart rate and respiration (frequency and depth), in words” value (“arterial blood pressure” for short) in the series with anesthetized dogs was “did not experience an evident change”.
On to `CCCc1nn(C)c2c(=S)[nH]c(-c3cc(S(=O)(=O)N4C[C@@H](C)N[C@@H](C)C4)ccc3OC)nc12` [Compound (3), 5-[2-methoxy-5-(cis-3,5-dimethylpiperazin-1-sulfonyl)phenyl]-1-methyl-3-n-propyl-1,6-dihydro-7H-pyrazolo[4,3-d]pyrimidin-7-thione], for which, in the series with rats with testis removed [2], the “penile swelling time (in words)” value is given as “lengthened” and the “latent period … (in words)” value was “evidently shortened”. In the series on rats with testis removed [2] (oral 20 mg/kg), this molecule showed a Latent period of 32.8 ± 4.4 s and a Swelling time of 551.8 ± 350.8 s. Moreover, in the series on rats with testis removed [2] (oral 40 mg/kg), the Latent period is 30.4 ± 2.6 s and the Swelling time stood at 809.6 ± 247.5 s. Also, in the series on mice with testis removed (oral 40 mg/kg), the Incidence is recorded as 20%, the “Times of back climbing” value is 2 and the “Number” value was 2. Besides, in the series with mice with testis removed (oral 80 mg/kg), the Incidence is listed as 30%, the “Times of back climbing” value is given as 4 and the “Number” value is on record as 3. In addition, in series [3], the LD50 was 2500 mg/kg. In the series on anesthetized dogs, the “arterial blood pressure” value was “did not experience an evident change”.
Turning to `CCCOc1ccc(S(=O)(=O)N2C[C@@H](C)N[C@@H](C)C2)cc1-c1nc2c(CCC)nn(C)c2c(=S)[nH]1` [Compound (4), 5-[2-propoxy-5-(cis-3,5-dimethylpiperazin-1-sulfonyl)phenyl]-1-methyl-3-n-propyl-1,6-dihydro-7H-pyrazolo[4,3-d]pyrimidin-7-thione], in the series on rats with testis removed [2], the “penile swelling time (in words)” value is reported as “lengthened” and the “latent period … (in words)” value is given as “evidently shortened”. Moreover, in the series on mice with testis removed (oral 40 mg/kg), the Incidence was found to be 20%, the “Times of back climbing” value is on record as 3 and the “Number” value is listed as 2. Also, in the series with mice with testis removed (oral 80 mg/kg), the Incidence turned out to be 30%, the “Times of back climbing” value stood at 5 and the “Number” value is reported as 3. The LD50 in series [3] is > 3000 mg/kg. Also, the “arterial blood pressure” value in the series with anesthetized dogs is recorded as “did not experience an evident change”.
In the series with rats with testis removed [2] (oral 50 mg/kg), `CCCc1nn(C)c2c(=O)[nH]c(-c3cc(S(=O)(=O)N4CCN(C)CC4)ccc3OCC)nc12` [Sildenafil, reference compound] yielded a Latent period of 28.9 ± 1.7 s. Besides, the Swelling time in the series with rats with testis removed [2] (oral 50 mg/kg) came out at 2272.5 ± 326.2 s. For the same molecule, the 50% lethal dose (LD50) in series [1] (as reported in Chinese Journal of Clinical Pharmacology and Therapeutics (1999, 4(3): 237-240)) is 635 mg/kg; in series [1] (setting [5]), 635 mg/kg. In the series with healthy mice, the “occurrences of back climbing” value is 50%. In addition, the “times of back climbing on the female mice performed by the male mice” value in the series with healthy mice is 19. In the series with mice with testis removed (oral 80 mg/kg), the Incidence came out at 70%. In addition, the “Number” value in the series on mice with testis removed (oral 80 mg/kg) is 6*. Moreover, the “how long the penile swelling effect lasts after administration” value with rats with testis removed [4] is on record as “about 1 hour”. For the same molecule, the Penile swelling time with rats with testis removed [4] (at 1 h after administration) was found to be 1067.0 ± 204.5 s; in the series with rats with testis removed [4] (at 3 h after administration), 44.0 ± 11.3 s; with rats with testis removed [4] (at 6 h after administration), 38.8 ± 5.6 s; with rats with testis removed [4] (at 24 h after administration) it was 61.0 ± 8.7 s; in the series with rats with testis removed [4] (value before administration) it was 62.8 ± 7.7 s. Also, in the series with rats with testis removed [4] (at 3 hr after the administration), the “penile swelling time compared with control group (in words)” value is reported as “shorter than that of the control group”. Also, the “blood pressure (in words)” value is given as “began to decrease at 15 min after the administration” in the series with anesthetized rats (50 mg/kg through dodecadactylon) and “apparent effect of decreasing the blood pressure” with anesthetized dogs (Sildenafil 40 mg/kg, mainly diastolic pressure). Moreover, the Heart rate in the series with anesthetized rats (setting [6]) was found to be 445 ± 29.7 times/min; with anesthetized rats (setting [7]) it was 444 ± 29.6 times/min; in the series on anesthetized rats (setting [8]), 437 ± 22.8 times/min; with anesthetized rats (setting [9]), 439 ± 22.6 times/min; with anesthetized rats (50 mg/kg through dodecadactylon, before administration), 429 ± 26.1 times/min. For the same molecule, the Systolic pressure in the series on anesthetized rats (setting [6]) is 90 ± 29.7 mmHg; in the series with anesthetized rats (setting [7]), 90 ± 29.6 mmHg; with anesthetized rats (setting [8]), 88 ± 22.9 mmHg; with anesthetized rats (setting [9]), 93 ± 22.6 mmHg; in the series with anesthetized rats (setting [10]), 120 ± 10.6 mmHg. Also, the diastolic pressure in the series with anesthetized rats (setting [6]) came to 68 ± 29.7 mmHg; in the series with anesthetized rats (setting [7]) it was 70 ± 29.6 mmHg; with anesthetized rats (setting [8]), 68 ± 22.9 mmHg; in the series with anesthetized rats (setting [9]), 71 ± 22.6 mmHg; in the series with anesthetized rats (setting [10]), 98 ± 16.0 mmHg. Further, the “effect on the heart rate (in words)” value in the series on anesthetized rats (50 mg/kg, at 15 and 30 minutes after administration) was “increasing the heart rate”.
